Measurements as given in patent publication US4820694A, “Modifications of 3-O-demethylmycinose in macrocin and lactenocin” (priority 1986, dated 1989).
Values after ≈ are worked out from the molar mass of the structure shown.

Experiments:
[1] = test system: Escherichia coli EC14; experiment: standard agar-dilution MIC assay; type: cell-based
Description: (§1) The MIC's in Table III were determined by standard agar-dilution assays. The MIC's in Table IV were obtained using conventional brothdilution microtiter tests.

[2] = test system: Haemophilus influenzae 76; experiment: standard agar-dilution MIC assay; type: cell-based; conditions: Haemophilus influenzae, 76
Description: as §1

[3] = test system: Haemophilus influenzae C.L.; experiment: standard agar-dilution MIC assay; type: cell-based; conditions: Haemophilus influenzae
Description: as §1

[4] = test system: Klebsiella pneumoniae X68; experiment: standard agar-dilution MIC assay; type: cell-based; conditions: Klebsiella pneumoniae, X68
Description: as §1

[5] = test system: Pseudomonas aeruginosa X239; experiment: standard agar-dilution MIC assay; type: cell-based; conditions: Pseudomonas aeruginosa, X239
Description: as §1

[6] = test system: Staphylococcus aureus V41; experiment: standard agar-dilution MIC assay; type: cell-based; conditions: Staphylococcus aureus, V41
Description: as §1

[7] = test system: Staphylococcus aureus X1.1; experiment: standard agar-dilution MIC assay; type: cell-based; conditions: Staphylococcus aureus, X1.1
Description: as §1

[8] = test system: Staphylococcus aureus X400; experiment: standard agar-dilution MIC assay; type: cell-based; conditions: Staphylococcus aureus, X400
Description: as §1

[9] = test system: Staphylococcus epidermidis EP12; experiment: standard agar-dilution MIC assay; type: cell-based
Description: as §1

[10] = test system: Staphylococcus epidermidis EPI1; experiment: standard agar-dilution MIC assay; type: cell-based; conditions: Staphylococcus epidermidis, EPI1
Description: as §1

[11] = test system: Streptococcus Group D 9960; experiment: standard agar-dilution MIC assay; type: cell-based; conditions: GROUPD9960, read-out: MIC
Description: as §1

[12] = test system: Streptococcus Group D X66; experiment: standard agar-dilution MIC assay; type: cell-based; conditions: read-out: MIC
Description: as §1

[13] = test system: Streptococcus pyogenes C203; experiment: standard agar-dilution MIC assay; type: cell-based; conditions: Streptococcus pyogenes, C203
Description: as §1

[14] = test system: Staphylococcus aureus S13E; experiment: microbe, parasite or virus in culture; type: cell-based; conditions: Staphylococcus aureus, S13E
Description: as §1

[15] = test system: Streptococcus pneumoniae Park I; experiment: microbe, parasite or virus in culture; type: cell-based; conditions: Streptococcus pneumoniae
Description: as §1

[16] = test system: Bordetella bronchiseptica; experiment: broth-dilution microtiter MIC test; type: cell-based; conditions: Bordetella bronchiseptica
Description: as §1

[17] = test system: Mycoplasma gallisepticum 15E; experiment: broth-dilution microtiter MIC test; type: cell-based; conditions: Mycoplasmoides gallisepticum, 15E
Description: as §1

[18] = test system: Mycoplasma gallisepticum 29C; experiment: broth-dilution microtiter MIC test; type: cell-based; conditions: Mycoplasmoides gallisepticum, 29C
Description: as §1

[19] = test system: Mycoplasma gallisepticum 36H; experiment: broth-dilution microtiter MIC test; type: cell-based; conditions: Mycoplasmoides gallisepticum, 36H
Description: as §1

[20] = test system: Mycoplasma hyorhinis 29E; experiment: broth-dilution microtiter MIC test; type: cell-based; conditions: Mycoplasma, 29E
Description: as §1

[21] = test system: Mycoplasma synoviae 40A; experiment: broth-dilution microtiter MIC test; type: cell-based; conditions: Mycoplasmopsis synoviae, 40A
Description: as §1

[22] = test system: Pasteurella hemolytica 22C; experiment: broth-dilution microtiter MIC test; type: cell-based; conditions: Pasteurella, 22C
Description: as §1

[23] = test system: Pasteurella hemolytica 23C; experiment: broth-dilution microtiter MIC test; type: cell-based; conditions: Pasteurella, 23C
Description: as §1

[24] = test system: Pasteurella hemolytica 41D; experiment: broth-dilution microtiter MIC test; type: cell-based; conditions: Pasteurella, 41D
Description: as §1

[25] = test system: Pasteurella multocida 17E; experiment: broth-dilution microtiter MIC test; type: cell-based; conditions: Pasteurella multocida, 17E
Description: as §1

[26] = test system: Pasteurella multocida 22A; experiment: broth-dilution microtiter MIC test; type: cell-based; conditions: Pasteurella multocida, 22A
Description: as §1

[27] = test system: Pasteurella multocida 40G; experiment: broth-dilution microtiter MIC test; type: cell-based; conditions: Pasteurella multocida, 40G
Description: as §1

[28] = test system: Pasteurella multocida 60A; experiment: broth-dilution microtiter MIC test; type: cell-based; conditions: Pasteurella multocida, 60A
Description: as §1

[29] = test system: Pasteurella multocida 68C; experiment: broth-dilution microtiter MIC test; type: cell-based; conditions: Pasteurella multocida, 68C
Description: as §1

[30] = test system: Staphylococcus aureus 19C; experiment: broth-dilution microtiter MIC test; type: cell-based; conditions: Staphylococcus aureus, 19C
Description: as §1

[31] = test system: Streptococcus sp. 19F; experiment: broth-dilution microtiter MIC test; type: cell-based; conditions: Streptococcus, SP.19F
Description: as §1

[32] = test system: Staphylococcus epidermidis 222; experiment: standard agar-dilution MIC assay; type: cell-based; conditions: Staphylococcus epidermidis, 222
Description: as §1

[33] = test system: Streptococcus pyogenes C203; experiment: protection of mice experimentally infected with S. pyogenes C203; type: in vivo; conditions: C203, sc
Description: The formula 1 compounds have shown in vivo antimicrobial activity against experimentally-induced infections in laboratory animals. When two doses of test compound were administered to mice experimentally infected with S. pyrogenes C203, the activity observed was measured as an ED50 value [effective dose in mg/kg to protect 50% of the test animals: see Warren Wick, et al., J. Bacteriol. 81, 233-235 (1961)].
^a mg/kg × 2; doses given 1 and 4 hours postinfection

SMILES	MIC [1] [µg/mL]	MIC [2] [µg/mL]	MIC [3] [µg/mL]	MIC [4] [µg/mL]	MIC [5] [µg/mL]	MIC [6] [µg/mL]	MIC [7] [µg/mL]	MIC [8] [µg/mL]	MIC [10] [µg/mL]	MIC [11] [µg/mL]	MIC [12] [µg/mL]	MIC [13] [µg/mL]	MIC [14] [µg/mL]	MIC [15] [µg/mL]	MIC [16] [µg/mL]	MIC [17] [µg/mL]	MIC [18] [µg/mL]	MIC [19] [µg/mL]	MIC [20] [µg/mL]	MIC [21] [µg/mL]	also measured
CCC1OC(=O)CC(O)C(C)C(OC2OC(C)C(OC3CC(C)(O)C(O)C(C)O3)C(N(C)C)C2OC(C)=O)C(CC=O)CC(C)C(=O)C=CC(C)=CC1COC1OC(C)C(OC(=O)Cc2ccccc2)C(OC(=O)Cc2ccccc2)C1OC (stereo not shown) [Compound 11, 2'-O-Acetyl-3'",4'"-di-O-phenylacetylmacrocin]	> 128	> 128	> 128	> 128	> 128	16 (≈ 13.6 µM)	16 (≈ 13.6 µM)	64 (≈ 54.2 µM)	32 (≈ 27.1 µM)	16 (≈ 13.6 µM)	32 (≈ 27.1 µM)	4 (≈ 3.39 µM)	32 (≈ 27.1 µM)	1 (≈ 0.847 µM)	> 50	25 (≈ 21.2 µM)	3.12 (≈ 2.64 µM)	50 (≈ 42.4 µM)	12.5 (≈ 10.6 µM)	12.5 (≈ 10.6 µM)	MIC [9]: 32 µg/mL (≈ 27.1 µM); MIC [22]: > 50 µg/mL; MIC [23]: > 50 µg/mL; MIC [24]: > 50 µg/mL; MIC [25]: > 50 µg/mL; MIC [26]: > 50 µg/mL; MIC [27]: > 50 µg/mL; MIC [28]: > 50 µg/mL; MIC [29]: > 50 µg/mL; MIC [30]: 50 µg/mL (≈ 42.4 µM); MIC [31]: 3.12 µg/mL (≈ 2.64 µM)
CCC1OC(=O)CC(O)C(C)C(OC2OC(C)C(O)C(N(C)C)C2O)C(CC=O)CC(C)C(=O)C=CC(C)=CC1COC1OC(C)C(O)C(OC(=O)Cc2ccccc2)C1OC (stereo not shown) [Compound 32, 3"-O-Phenylacetyl-lactenocin]	> 128	8 (≈ 9.13 µM)	8 (≈ 9.13 µM)	> 128	> 128	1 (≈ 1.14 µM)	0.5 (≈ 0.571 µM)	2 (≈ 2.28 µM)	0.5 (≈ 0.571 µM)	1 (≈ 1.14 µM)	1 (≈ 1.14 µM)	0.25 (≈ 0.285 µM)	1 (≈ 1.14 µM)	0.5 (≈ 0.571 µM)	> 50	12.5 (≈ 14.3 µM)	0.195 (≈ 0.223 µM)	25 (≈ 28.5 µM)	1.56 (≈ 1.78 µM)	1.56 (≈ 1.78 µM)	MIC [32]: 0.25 µg/mL (≈ 0.285 µM); MIC [22]: 25 µg/mL (≈ 28.5 µM); MIC [23]: 25 µg/mL (≈ 28.5 µM); MIC [24]: 25 µg/mL (≈ 28.5 µM); MIC [25]: 25 µg/mL (≈ 28.5 µM); MIC [26]: 25 µg/mL (≈ 28.5 µM); MIC [27]: 25 µg/mL (≈ 28.5 µM); MIC [28]: 25 µg/mL (≈ 28.5 µM); MIC [29]: 12.5 µg/mL (≈ 14.3 µM); MIC [30]: 1.56 µg/mL (≈ 1.78 µM); MIC [31]: 1.56 µg/mL (≈ 1.78 µM); ED50 [33]: 4.4 mg/kg
CCC1OC(=O)CC(O)C(C)C(OC2OC(C)C(O)C(N(C)C)C2O)C(CC=O)CC(C)C(=O)C=CC(C)=CC1COC1OC(C)C(OC(=O)Cc2ccccc2)C(O)C1OC (stereo not shown) [Compound 30, 4"-O-Phenylacetyl-lactenocin]	> 128	8 (≈ 9.13 µM)	8 (≈ 9.13 µM)	> 128	> 128	0.5 (≈ 0.571 µM)	0.5 (≈ 0.571 µM)	1 (≈ 1.14 µM)	0.5 (≈ 0.571 µM)	1 (≈ 1.14 µM)	0.5 (≈ 0.571 µM)	0.25 (≈ 0.285 µM)	0.5 (≈ 0.571 µM)	0.5 (≈ 0.571 µM)	> 50	12.5 (≈ 14.3 µM)	0.39 (≈ 0.445 µM)	25 (≈ 28.5 µM)	1.56 (≈ 1.78 µM)	1.56 (≈ 1.78 µM)	MIC [32]: 0.25 µg/mL (≈ 0.285 µM); MIC [22]: 50 µg/mL (≈ 57.1 µM); MIC [23]: 25 µg/mL (≈ 28.5 µM); MIC [24]: 50 µg/mL (≈ 57.1 µM); MIC [25]: 25 µg/mL (≈ 28.5 µM); MIC [26]: 25 µg/mL (≈ 28.5 µM); MIC [27]: 25 µg/mL (≈ 28.5 µM); MIC [28]: 25 µg/mL (≈ 28.5 µM); MIC [29]: 12.5 µg/mL (≈ 14.3 µM); MIC [30]: 6.25 µg/mL (≈ 7.13 µM); MIC [31]: 1.56 µg/mL (≈ 1.78 µM)
